Source: patent publication US20220380347A1, “INHIBITORS OF CYSTEINE PROTEASES AND METHODS OF USE THEREOF” (Pardes Biosciences, Inc., priority 2020, published 2022)
Like-named read-outs stand apart in the source and are kept apart here.

Legend:
229E Mpro = 229E Mpro (Human coronavirus 229E, UniProt P0C6X1); assay: 229E Mpro enzymatic assay (standard methods, SARS-CoV2 Mpro assay given as exemplary); type: biochemical, human coronavirus (HCov) 229E
Procedure, shortened: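 Run by standard methods, with the SARS-CoV-2 Mpro protocol given as the model: E. coli-expressed C-His6 protease at 25 nM and substrate at 25 μM (Km 13.5 μM). Buffer pH 7.3 with 5 mM TCEP and 0.1% BSA; % inhibition versus controls fitted to variable-slope log(inhibitor)-response for IC50.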

HCov OC43 = assay: HCoV OC43 cytopathic effect (CPE) assay, CellTiter Glo; type: cell-based, human coronavirus (HCov) OC43
[1] = molecular target: COVID-19 (nCoV-2019, SARS-CoV2) Mpro (Severe acute respiratory syndrome coronavirus 2, UniProt P0DTD1); assay: COVID-19 (nCoV-2019, SARS-CoV2) Mpro enzymatic assay; type: biochemical; settings: 25 μM substrate
[2] = Betacoronavirus 1, OC43, read-out: OC43 IC50 (uM) MEDIAN, median
[3] = 25 nM Mpro, read-out: COVID-19 Mpro IC50
[4] = read-out: OC43 IC50 (uM) MEDIAN, median

229E Mpro, sequence (P0C6X1 2966-3267): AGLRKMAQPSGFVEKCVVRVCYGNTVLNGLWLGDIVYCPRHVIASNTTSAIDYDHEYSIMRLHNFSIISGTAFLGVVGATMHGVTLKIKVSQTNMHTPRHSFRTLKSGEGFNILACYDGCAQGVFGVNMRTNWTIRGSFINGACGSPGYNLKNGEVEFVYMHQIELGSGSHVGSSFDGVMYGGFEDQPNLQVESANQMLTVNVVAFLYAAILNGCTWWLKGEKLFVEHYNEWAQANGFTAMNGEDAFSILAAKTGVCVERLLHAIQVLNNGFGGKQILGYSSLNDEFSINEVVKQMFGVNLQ

| Compound | EC50 (229E Mpro; 229E Mpro EC50) [µM] | IC50 (HCov OC43; [2]) [µM] | IC50 [1, 3] [µM] | IC50 (HCov OC43; [4]) [µM] | also measured |
| --- | --- | --- | --- | --- | --- |
| CC(C)(C)c1ccc(N(C(=O)[C@H]2C[C@@](C)(O)CN2C#N)C(C(=O)NC2CCC(F)(F)CC2)c2cnccn2)cc1 (stereo partly drawn) [Compound 1326, (2R,4R)—N-(4-(tert-butyl)phenyl)-1-cyano-N-(2-((4,4-difluorocyclohexyl)amino)-2-oxo-1-(pyrazin-2-yl)ethyl)-4-hydroxy-4-methylpyrrolidine-2-carboxamide] | < 2 | < 2 | < 2 | – | – |
| CN(C)CCNC(=O)C(c1cccnc1)N(C(=O)[C@H]1CCCN1C#N)c1ccc(C(C)(C)C)cc1 (single isomer, unassigned) [Compound 435 Isomer 2] | – | – | 10 to 30 | – | EC50 (229E Mpro; read-out: 229E Mpro EC50): < 2 µM; IC50 (HCov OC43; read-out: OC43 IC50 (uM) MEDIAN, median, listed as 435 Isomer 2): 10 to 30 µM |
| N#CN1C[C@H](F)C[C@@H]1C(=O)N(c1ccc(S(F)(F)(F)(F)F)cc1)C(C(=O)NC1CCC(F)(F)CC1)c1cncc(F)c1 (single isomer, unassigned) [Compound 1098 Isomer 1] | < 2 | 2 to 10 | 2 to 10 | – | – |
| COc1ccc(NC(=O)C(c2cccnc2)N(C(=O)[C@H]2C[C@@H](OC)CN2C#N)c2ccc(S(F)(F)(F)(F)F)cc2)cn1 (single isomer, unassigned) [1180 Isomer 1] | 2 to 10 | 2 to 10 | 2 to 10 | – | – |
| Cc1ccnc(C)c1C(C(=O)NC1CCC(F)(F)CC1)N(C(=O)[C@H]1C[C@@](C)(O)CN1C#N)c1ccc(S(F)(F)(F)(F)F)cc1 (stereo partly drawn) [Compound 997c, (2R,4R)-1-cyano-N-[2-[(4,4-difluorocyclohexyl)amino]-1-(2,4-dimethyl-3-pyridyl)-2-oxo-ethyl]-4-hydroxy-4-methyl-N-[4-(pentafluoro-λ^6-sulfanyl)phenyl]pyrrolidine-2-carboxamide] | < 2 | 2 to 10 | 10 to 30 | – | – |
| CO[C@@H]1C[C@H](C(=O)N(c2ccc(S(F)(F)(F)(F)F)cc2)C(C(=O)NC2CC3CCC(C2)O3)c2cccnc2)N(C#N)C1 (single isomer, unassigned) [1187 Isomer 2] | – | – | < 2 | < 2 | EC50 (229E Mpro; read-out: 229E Mpro EC50): < 2 µM |
| CO[C@@H]1C[C@H](C(=O)N(c2ccc(S(F)(F)(F)(F)F)cc2)C(C(=O)N2CCN(C(=O)OC(C)(C)C)CC2)c2cccnc2)N(C#N)C1 (stereo partly drawn) [Compound 1149b, tert-butyl-4-[2-[N-[(2R,4R)-1-cyano-4-methoxy-pyrrolidine-2-carbonyl]-4-(pentafluoro-λ6-sulfanyl)anilino]-2-(3-pyridyl)acetyl]piperazine-1-carboxylate] | < 2 | < 2 | < 2 | – | – |
| C[C@H](NC(=O)C(c1cncc(F)c1)N(C(=O)[C@H]1C[C@@](C)(O)CN1C#N)c1ccc(-c2ccccc2)cc1)c1ccccc1 (single isomer, unassigned) [1345 Isomer 2] | 10 to 30 | – | 2 to 10 | 10 to 30 | – |
| O=C(NC1CCC(F)(F)CC1)C(c1cncc(F)c1)N(C(=O)c1cnc[nH]1)c1ccc(S(F)(F)(F)(F)F)cc1 (single isomer, unassigned) [1337 Isomer 1, N-[2-[(4,4-difluorocyclohexyl)amino]-1-(5-fluoro-3-pyridyl)-2-oxo-ethyl]-N-[4-(pentafluoro-λ6-sulfanyl)phenyl]-1H-imidazole-5-carboxamide] | 2 to 10 | > 30 | 10 to 30 | – | – |
| CC1(C)CN(C#N)[C@@H](C(=O)N(c2ccc(C(C)(C)C)cc2)C(C(=O)NC2CCOCC2)c2cccnc2)CO1 (single isomer, unassigned) [1141 Isomer 3] | 10 to 30 | – | > 30 | > 30 | – |
| C[C@@]1(O)C[C@H](C(=O)N(c2ccc(S(F)(F)(F)(F)F)cc2)C(C(=O)NC2CCOCC2)c2cnccn2)N(C#N)C1 (stereo partly drawn) [Compound 1322, (2R,4R)-1-cyano-4-hydroxy-4-methyl-N-[2-oxo-1-pyrazin-2-yl-2-(tetrahydropyran-4-ylamino)ethyl]-N-[4-(pentafluoro-λ6-sulfanyl)phenyl]pyrrolidine-2-carboxamide] | < 2 | < 2 | < 2 | – | – |
| Cc1ccncc1C(C(=O)NC1CCC(F)(F)CC1)N(C(=O)[C@H]1C[C@@](C)(O)CN1C#N)c1ccc(S(F)(F)(F)(F)F)cc1 (stereo partly drawn) [Compound 993c, (2R,4R)-1-cyano-N-[2-[(4,4-difluorocyclohexyl)amino]-1-(4-methyl-3-pyridyl)-2-oxo-ethyl]-4-hydroxy-4-methyl-N-[4-(pentafluoro-λ6-sulfanyl)phenyl]pyrrolidine-2-carboxamide] | < 2 | 2 to 10 | < 2 | – | – |
| CN1CC(C(=O)N(c2ccc(S(F)(F)(F)(F)F)cc2)C(C(=O)NC2CCC(F)(F)CC2)c2cncc(F)c2)N(C#N)CC1=O (stereo not drawn) [Compound 1161, 1-cyano-N-[2-[(4,4-difluorocyclohexyl)amino]-1-(5-fluoro-3-pyridyl)-2-oxo-ethyl]-4-methyl-5-oxo-N-[4-(pentafluoro-λ^6-sulfanyl)phenyl]piperazine-2-carboxamide] | < 2 | < 2 | < 2 | – | – |
| CO[C@@H]1C[C@H](C(=O)N(c2ccc(S(F)(F)(F)(F)F)cc2)C(C(=O)NCC(=O)N2CCCC2)c2cccnc2)N(C#N)C1 (stereo partly drawn) [Compound 1182, (2R,4R)-1-cyano-4-methoxy-N-[2-oxo-2-[(2-oxo-2-pyrrolidin-1-yl-ethyl)amino]-1-(3-pyridyl)ethyl]-N-[4-(pentafluoro-λ6-sulfanyl)phenyl]pyrrolidine-2-carboxamide] | < 2 | < 2 | < 2 | – | – |
| CC(C)(C)c1ccc(N(C(=O)[C@H]2CC(F)(F)CN2C#N)C(C(=O)NC2CCCCC2)c2cccnc2)cc1 (single isomer, unassigned) [Compound 876 Isomer 2] | – | – | 10 to 30 | – | EC50 (229E Mpro; read-out: 229E Mpro EC50): < 2 µM; IC50 (HCov OC43; read-out: OC43 IC50 (uM) MEDIAN, median, listed as 876 Isomer 2): > 30 µM |
| CC(C(=O)NC1CCC(F)(F)CC1)(c1cccnc1)N(C(=O)[C@H]1C[C@@](C)(O)CN1C#N)c1ccc(S(F)(F)(F)(F)F)cc1 (stereo partly drawn) [Compound 1077, (2R,4R)-1-cyano-N-[2-[(4,4-difluorocyclohexyl)amino]-1-methyl-2-oxo-1-(3-pyridyl)ethyl]-4-hydroxy-4-methyl-N-[4-(pentafluoro-λ^6-sulfanyl)phenyl]pyrrolidine-2-carboxamide] | < 2 | < 2 | < 2 | – | – |
| N#CN1C2CCC1(C(=O)N(c1ccc(S(F)(F)(F)(F)F)cc1)C(C(=O)NC1CCC(F)(F)CC1)c1cncc(F)c1)CC2 (stereo not drawn) [Compound 1101, 7-cyano-N-[2-[(4,4-difluorocyclohexyl)amino]-1-(5-fluoro-3-pyridyl)-2-oxo-ethyl]-N-[4-(pentafluoro-λ6-sulfanyl)phenyl]-7-azabicyclo[2.2.1]heptane-1-carboxamide] | – | > 30 | – | – | EC50 (229E Mpro; read-out: 229E Mpro EC50): 2 to 10 µM; IC50 ([1]; COVID-19 Mpro IC50, 25 nM Mpro): > 30 µM |
| N#CN1C[C@H](O)C[C@@H]1C(=O)N(c1ccc(C(F)(C(F)(F)F)C(F)(F)F)cc1)C(C(=O)NC1CCCCC1)c1cccnc1 (single isomer, unassigned) [Compound 779 Isomer 2] | 2 to 10 | – | 2 to 10 | 2 to 10 | – |
| CO[C@@H]1C[C@H](C(=O)N(c2ccc(S(F)(F)(F)(F)F)cc2)C(C(=O)NC(C)C2CCCCN2C(=O)OC(C)(C)C)c2cccnc2)N(C#N)C1 (single isomer, unassigned) [1303 Isomer 3] | < 2 | – | < 2 | < 2 | – |
| COC(C)(C)CNC(=O)C(c1cccnc1)N(C(=O)[C@H]1CCCN1C#N)c1ccc(C(C)(C)C)cc1 (single isomer, unassigned) [Compound 427 Isomer 1] | 2 to 10 | – | 10 to 30 | – | IC50 (HCov OC43; read-out: OC43 IC50 (uM) MEDIAN, median, listed as 427 Isomer 1): > 30 µM |
| CC1(C)CN(C#N)[C@@H](C(=O)N(c2ccc(C(C)(C)C)cc2)C(C(=O)NC2CCOCC2)c2cccnc2)CO1 (single isomer, unassigned) [1141 Isomer 2] | < 2 | – | < 2 | 2 to 10 | – |
| CC(C)(C#N)C(=O)N(c1ccc(S(F)(F)(F)(F)F)cc1)C(C(=O)NC1CCC(F)(F)CC1)c1cncc(F)c1 (single isomer, unassigned) [Compound 1316 Isomer 2, 2-Cyano-N-[2-[(4,4-difluorocyclohexyl)amino]-1-(5-fluoro-3-pyridyl)-2-oxo-ethyl]-2-methyl-N-[4-(pentafluoro-λ6-sulfanyl)phenyl]propanamide] | > 30 | – | > 30 | > 30 | – |
| CO[C@@H]1C[C@H](C(=O)N(c2ccc(C3CC3)cc2F)C(C(=O)NC2CCC(F)(F)CC2)c2cnccc2C(F)(F)F)N(C#N)C1 (single isomer, unassigned) [Compound 1309 Isomer 1] | < 2 | < 2 | < 2 | – | – |
| CO[C@H]1C[C@H](C(=O)N(c2ccc(C(C)(C)C)cc2)C(C(=O)NC2CCCCC2)c2cccnc2)N(C#N)C1 (single isomer, unassigned) [Compound 293 Isomer 2] | 2 to 10 | – | 10 to 30 | – | IC50 (HCov OC43; read-out: OC43 IC50 (uM) MEDIAN, median, listed as 293 Isomer 2): 10 to 30 µM |
| CO[C@@H]1C[C@H](C(=O)N(c2ccc(S(F)(F)(F)(F)F)cc2)C(C(=O)NC(C)C2CCCCN2C(=O)OC(C)(C)C)c2cccnc2)N(C#N)C1 (single isomer, unassigned) [1303 Isomer 3.2] | 10 to 30 | – | > 30 | > 30 | – |
